Measured values: PubChem BioAssay AID2060504 (Molecular Pharmacology Branch, DTP, NCI, 2025)

System: 636577-100-R-J1-PDC complex spheroid viability
Assay: Anticancer human tumor 636577-100-R-J1-PDC patient-derived endometrial adenocarcinoma cell line growth inhibition [GQUAD]
Conditions: for IC50: curve of first compound; for viability, T/C: stronger effect = lower value
From the text: DNA G-quadruplex Stabilizer Agents in Combinations in Complex Spheroids
A high-throughput screen of multi-cell type tumor spheroids was designed to identify active combinations of DNA G-quadruplex stabilizer agents and targeted small molecules. Complex spheroids include a stromal component modeled by human endothelial cells (HUVEC) and fibroblasts modeled by human mesenchymal stem cells (MSCs). The concentration ranges selected for each drug and investigational agent were based upon clinically achievable concentrations if the clinical Cmax of the agent was known.
Compounds. The drugs and investigational agents: pidnarulex (CX-5461; NSC782164), APTO-253 (NSC789042), BRACO-19 (NSC847499), peposertib (NSC802822), ceralasertib (NSC780249), elimusertib (NSC800525), camonsertib (NSC841442), AZD-1390 (NSC803789), olaparib (NSC753686), talazoparib (NSC767125), ART-558 (NSC835418), sotorasib (NSC818433), MRTX-1133 (NSC836407), SN-38 (NSC673596), topotecan (NSC609699), etoposide (NSC141540), doxorubicin (NSC123127), gemcitabine (NSC613327), 5-fluorouracil (NSC19893), paclitaxel (NSC125973), vemurafenib (NSC761431), panobinostat (NSC761190), R-306465 (JNJ-16241199; NSC773264), adavosertib (NSC754352), TP-3654 (NSC805149), carboplatin (NSC241240), KSQ-4279 (NSC840948), and staurosporine (NSC755774) were obtained from the National Cancer Institute (NCI) Developmental Therapeutics Program Chemical Repository (34). The FDA-approved anticancer drug set is available from the NCI Developmental Therapeutics Program. […] The stock solutions were prepared in dimethyl sulfoxide (DMSO, Sigma-Aldrich, St. Louis, MO, cat. D2650) at 800-fold the tested concentration and stored at -70 degrees C prior to their use. All drugs and investigational agents were tested over a range starting from a high concentration at or near the clinical Cmax and decreasing in half-log increments. If the clinical Cmax for an agent had not been determined, the highest concentration tested was 10 microM.
2.3 Cell Culture. All cells were maintained in an incubator at 37 degrees C and 5% CO2 with 95% humidity. The PDC lines were cultured according to standard operating procedures established by the NCI PDMR. All PDCs were thawed and cultured in Matrigel-coated flasks prepared with a working solution of 1X Ham's F-12 nutrient mix, without supplementation (Invitrogen, cat. 11765054), 100 U/mL penicillin-streptomycin (Invitrogen, cat. 15140122), and 2.5% Matrigel (Corning Inc., cat. 354248) for the first three passages. The 857933-349-R-J2-PDC line was cultured in 6C/Colon 1B media, which includes advanced DMEM/F-12 (Thermo Fisher Scientific, cat. 12634028), 10 mM HEPES (Thermo Fisher Scientific, cat. 15630080), 1X GlutaMAX supplement (Thermo Fisher Scientific, cat. 35050061), 0.1 mg/mL primocin (InvivoGen, cat. ant-pm-2), 10% defined fetal bovine serum, heat inactivated (HyClone Laboratories Inc., cat. SH30070.03HI), 50% L-WRN conditioned media (ATCC, cat. CRL-3276), 1.25 mM N-Acetyl-L-cysteine (Sigma-Aldrich, cat. A9165), 10 mM nicotinamide (Sigma-Aldrich, cat. N0636), 1X B-27 supplement (Thermo Fisher Scientific, cat. 17504044), 1X N-2 supplement (Thermo Fisher Scientific, cat. 17502048), 10 microM Y-27632 dihydrochloride (Tocris Bioscience, cat. 1254), and 50 ng/mL human EGF recombinant protein (Thermo Fisher Scientific, cat. PHG0311). The 485176-168-R4-J1-PDC line was cultured in Panc media, which includes all 6C/Colon 1B media components plus 100 ng/mL human FGF-10 (Thermo Fisher Scientific, cat. 100-26), 500 nM SB-431542 (Selleckchem, cat. S1067), and gastrin (Tocris, cat. 3006).
[…]
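Note: viability read after seven days of drug exposure.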
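Throughout, for viability, T/C: luminescence signal used as a proxy for viable cells; 100% = DMSO vehicle control wells.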

In the case of C#Cc1c(F)ccc2cc(O)cc(-c3ncc4c(N5CC6CCC(C5)N6)nc(OCC56CCCN5CC(F)C6)nc4c3F)c12 (configuration not stated) + CN(C)c1ccc(Nc2c3ccc(NC(=O)CCN4CCCC4)cc3nc3cc(NC(=O)CCN4CCCC4)ccc23)cc1, the IC50 (second compound 0.0316 µM) is reported as 6.07 µM, the IC50 (second compound 0.1 µM) is reported as 3.23 µM and the IC50 (second compound 0.316 µM) is reported as 3.86 µM. The IC50 (second compound 1 µM) was 2.43 µM, the IC50 (second compound 3.16 µM) was < 0.0316 µM and the IC50 (second compound 10 µM) was < 0.0316 µM. It also gave a viability, T/C (second compound 0.0316 µM, first compound 0.0316 µM) of 109%, a viability, T/C (second compound 0.0316 µM, first compound 0.1 µM) of 84.1% and a viability, T/C (second compound 0.0316 µM, first compound 0.316 µM) of 95.4%. The viability, T/C (second compound 0.0316 µM, first compound 1 µM) was 69.9%, the viability, T/C (second compound 0.0316 µM, first compound 3.16 µM) was 72.2% and the viability, T/C (second compound 0.0316 µM, first compound 10 µM) was 37.2%. For the same compound, the viability, T/C (second compound 0.1 µM, first compound 0.0316 µM) was 98.6%, the viability, T/C (second compound 0.1 µM, first compound 0.1 µM) was 94.3% and the viability, T/C (second compound 0.1 µM, first compound 0.316 µM) was 85.6%. It also gave a viability, T/C (second compound 0.1 µM, first compound 1 µM) of 68%, a viability, T/C (second compound 0.1 µM, first compound 3.16 µM) of 49.4% and a viability, T/C (second compound 0.1 µM, first compound 10 µM) of 42.5%. It also gave a viability, T/C (second compound 0.316 µM, first compound 0.0316 µM) of 93%, a viability, T/C (second compound 0.316 µM, first compound 0.1 µM) of 99.3% and a viability, T/C (second compound 0.316 µM, first compound 0.316 µM) of 85.7%. It also gave a viability, T/C (second compound 0.316 µM, first compound 1 µM) of 62.1%, a viability, T/C (second compound 0.316 µM, first compound 3.16 µM) of 59.1% and a viability, T/C (second compound 0.316 µM, first compound 10 µM) of 34.9%. For the same compound, the viability, T/C (second compound 1 µM, first compound 0.0316 µM) was 61%, the viability, T/C (second compound 1 µM, first compound 0.1 µM) was 75.2% and the viability, T/C (second compound 1 µM, first compound 0.316 µM) was 70.5%. For the same compound, the viability, T/C (second compound 1 µM, first compound 1 µM) was 61.8%, the viability, T/C (second compound 1 µM, first compound 3.16 µM) was 46.5% and the viability, T/C (second compound 1 µM, first compound 10 µM) was 29.8%. It also gave a viability, T/C (second compound 3.16 µM, first compound 0.0316 µM) of 41.7%, a viability, T/C (second compound 3.16 µM, first compound 0.1 µM) of 37.2% and a viability, T/C (second compound 3.16 µM, first compound 0.316 µM) of 38%. For the same compound, the viability, T/C (second compound 3.16 µM, first compound 1 µM) was 36.4%, the viability, T/C (second compound 3.16 µM, first compound 3.16 µM) was 22.7% and the viability, T/C (second compound 3.16 µM, first compound 10 µM) was 15.7%. For the same compound, the viability, T/C (second compound 10 µM, first compound 0.0316 µM) was 5.81%, the viability, T/C (second compound 10 µM, first compound 0.1 µM) was 4.81% and the viability, T/C (second compound 10 µM, first compound 0.316 µM) was 4.89%. It also gave a viability, T/C (second compound 10 µM, first compound 1 µM) of 3.78%, a viability, T/C (second compound 10 µM, first compound 3.16 µM) of 3.21% and a viability, T/C (second compound 10 µM, first compound 10 µM) of 0.66%.
